From patent US20130237496A1, “ACTIVE INGREDIENT OBTAINED FROM CICHORIUM INTYBUS FOR ACTING ON THE BARRIER FUNCTION OF THE SKIN THAT IS SIMILAR TO THAT OF VITAMIN D” (SOCIETE INDUSTRIELLE LIMOUSINE D'APPLICATION BIOLOGIQUE, priority 2012, published 2013) come the findings set out here.

Common to all, as to type: cell-based
Assay [1] concerns Kallikrein 5 (KLK5 or SCTE). As to the kind of experiment: Expression of RNAm by quantitative PCR in normal human keratinocytes: KLK5. The note with it: aged human keratinocytes; 10^−7M; 48 hours. An excerpt:
(§1) The study consists in comparing the effect of these different fractions on the expression of the involucrin and the KLK5 by quantitative PCR on normal human keratinocytes, with the result obtained for the active ingredient according to the invention at 1%. The test protocol is the one described in Item II. […]
(§2) The study was done by quantitative PCR on normal human keratinocytes obtained from aged donors (age of greater than 60 years), according to the operating procedure described below. […]
(§3) On D4, the cells are recovered, and the total RNA are extracted. The RNA are reverse-transcripts, and the complementary DNA that are obtained are analyzed by quantitative PCR (quantitative polymerase chain reaction).
(§4) The quantification of the incorporation of fluorescence is measured continuously using a thermal cycler, and the relative quantification is carried out using software.

Assay [2] concerns Kruppel-like factor 4 (KLF4). The assay can be described thus: Expression of RNAm by quantitative PCR in human keratinocytes of aged donors: KLF4. The note with it: 10^−7M, 48 hours.
Source text: (§5) The object of this study is to evaluate the effect of a Cichorium intybus root hydrolyzate comprising oligofructosans (Example 1) on its capacity to modulate the expression of the RNAm coding for epidermal differentiation proteins: • Kruppel-like factor 4 (KLF4): transcription factor involved in the terminal differentiation of keratinocytes, • Cytokeratin 1 (CK1): components of intermediate keratin filaments, • Involucrin: protein of the cornified envelope, • Cystatin E/M: Inhibitor of lysosomal protease cysteines that are involved in the differentiation of keratinocytes and desquamation. • Kallikrein 5 (KLK5 or SCTE): stratum corneum tryptic enzyme involved in desquamation.
(§6) The study was done by quantitative PCR on normal human keratinocytes obtained from aged donors (age of greater than 60 years), according to the operating procedure described below.
(§7) On D0, the human keratinocytes of aged donors are inoculated and incubated at 37° C.
(§8) The cells are then incubated for 48 hours at 37° C.
as §3, §4

In another assay the test system is Cystatin E/M. The assay can be described thus: Expression of RNAm by quantitative PCR in human keratinocytes of aged donors: cystatin E/M. To be noted: 10^−7M, 48 hours.
Source text: as §5, §6, §7, §8, §3, §4

For a further assay, the system named is Involucrin. The assay can be described thus: Expression of RNAm by quantitative PCR in normal human keratinocytes: involucrin. The note with it: aged human keratinocytes; 10^−7M; 48 hours.
Source text: as §1, §2, §3, §4

In the next assay the test system is Cytokeratin 1 (CK1). As to the kind of experiment: Expression of RNAm by quantitative PCR in human keratinocytes of aged donors: cytokeratin 1. To be noted: 10^−7M, 48 hours.
Source text: as §5, §6, §7, §8, §3, §4

Assay [3] deals with Aged reconstructed epidermis. As to the kind of experiment: Thickness of reconstructed epidermis from aged human keratinocytes (HE coloring). An excerpt: (§9) The object of this study is to evaluate the capacity of a Cichorium intybus root hydrolyzate comprising oligofructosans to promote the construction of a stratified and functional epidermis starting from aged human keratinocytes obtained by successive replications. First, the young human keratinocytes (passage 1: […] Next, the reconstructed epidermis (RE) is obtained after the young or aged human keratinocytes are cultivated. On D12 and D19, the RE are recovered, fixed, dehydrated and included in paraffin. Sections (4 μm) are then made using a microtome. Next, an HE coloring, and then an immunohistological marking of the filaggrin, terminal differentiation marker, are carried out. The display is produced on a microscope coupled with an image analysis system: • The thickness of the epidermis (living cell layers) is measured on the histological sections after the HE coloring, • The synthesis of the filaggrin is proportional to the intensity of the fluorescence (green color) that is present in the reconstructed epidermis.

The next assay concerns filaggrin. The assay can be described thus: Synthesis of filaggrin in reconstructed epidermis from aged human keratinocytes (immunohistological marking).
Source text: as §9

In the case of `C=C1/C(=C\C=C2/CCC[C@]3(C)[C@@H]([C@H](C)CCCC(C)(C)O)CC[C@@H]23)C[C@@H](O)C[C@@H]1O` [Calcitriol, calcitriol], in assay [1], the “RNAm Level/Control (%) KLK5” value is “+26%”. Further, the “RNAm Level/Control (%) KLF4” value in assay [2] is listed as “+25%”. Moreover, the “RNAm Level/Control (%) Cystatin E/M” value in the assay with Cystatin E/M was “+65%”. Further, the “RNAm Level/Control (%) Involucrin” value in the assay with Involucrin is reported as “+42%”. Moreover, the “RNAm Level/Control (%) Cytokeratin 1” value in the assay on Cytokeratin 1 (CK1) is on record as 0%. In addition, the “Thickness of the Epidermis (μm)” value in assay [3] (D12, 10^−8M) was 37.8 μm; in assay [3] (D19, 10^−8M), 58.6 (FIG. 1c) μm. In addition, the “Synthesis of Filaggrin (×10^4 UA)” value was 116 ×10^4 UA with filaggrin (D12, 10^−8M) and 795 (FIG. 2c) ×10^4 UA in the assay with filaggrin (D19, 10^−8M).
